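All cell lines were grown in 96-well plates and treated with compound for 48 hours. Here, GI50 denotes the concentration required for 50% inhibition of growth.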 The source made the active and inactive calls. Rule as the data show it: active = GI50 up to about 1.1 µM and inactive = higher.
What was measured:
Test in all cases: inhibition of tumour cell growth, NCI panel, 48 h
[1] = system: KM12
[2] = system: MCF7
[3] = system: Hs-578T
[4] = system: SN12C
[5] = system: NCI-H23
[6] = system: TK-10
[7] = system: MOLT-4
[8] = system: SK-MEL-28
[9] = system: SNB-75
[10] = system: HCT-116
[11] = system: K562
[12] = system: HOP-92
[13] = system: MDA-MB-231
[14] = system: SK-MEL-2
[15] = system: HL-60
[16] = system: OVCAR-8
[17] = system: NCI/ADR-RES
[18] = system: UACC-62
[19] = system: HOP-62
[20] = system: SW-620
[21] = system: T47D
[22] = system: HCC 2998
[23] = system: IGROV-1
[24] = system: Malme-3M
[25] = system: MDA-N
[26] = system: A549
[27] = system: UO-31
[28] = system: NCI-H522
[29] = system: NCI-H460
[30] = system: ACHN
[31] = system: NCI-H226
[32] = system: LOX IMVI
[33] = system: OVCAR-4
[34] = system: 786-0
[35] = system: DU-145
[36] = system: OVCAR-3
[37] = system: M14
[38] = system: SF-295
[39] = system: SK-MEL-5
[40] = system: SF-268
[41] = system: SK-OV-3
[42] = system: SR
[43] = system: U-251
[44] = system: SF-539
[45] = system: UACC-257
[46] = system: HCT-15
[47] = system: BT-549
[48] = system: MDA-MB-435
[49] = system: CCRF-CEM
[50] = system: A498
[51] = system: EKVX
[52] = system: CAKI-1
[53] = system: HT-29
[54] = system: COLO 205
[55] = system: RPMI-8226
[56] = system: OVCAR-5
[57] = system: SNB-19
[58] = system: PC-3
[59] = system: RXF 393

O/N=C1\C/C(=N\O)c2c(Br)sc(Br)c21 was tested, and the GI50 [1] was 32.6 µM (inactive), the GI50 [2] was 38.3 µM (inactive) and the GI50 [3] was 0.216 µM (active). For the same compound, the GI50 [4] was > 100 µM (inactive), the GI50 [5] was 20.4 µM (inactive) and the GI50 [6] was 38.5 µM (inactive). For the same compound, the GI50 [7] was 29.2 µM (inactive), the GI50 [8] was 24.7 µM (inactive) and the GI50 [9] was 17.3 µM (inactive). For the same compound, the GI50 [10] was 37.4 µM (inactive), the GI50 [11] was 37.5 µM (inactive) and the GI50 [12] was 46 µM (inactive). For the same compound, the GI50 [13] was 77.1 µM (inactive), the GI50 [14] was 43.4 µM (inactive) and the GI50 [15] was 27.4 µM (inactive). The GI50 [16] was 19.2 µM (inactive), the GI50 [17] was 30.2 µM (inactive) and the GI50 [18] was 91.2 µM (inactive). For the same compound, the GI50 [19] was 32.1 µM (inactive), the GI50 [20] was 26.4 µM (inactive) and the GI50 [21] was 31.3 µM (inactive). The GI50 [22] was 23.7 µM (inactive), the GI50 [23] was 30.4 µM (inactive) and the GI50 [24] was > 100 µM (inactive). The GI50 [25] was 78.5 µM (inactive), the GI50 [26] was 26.2 µM (inactive) and the GI50 [27] was 20.6 µM (inactive). The GI50 [28] was 17.7 µM (inactive), the GI50 [29] was > 100 µM (inactive) and the GI50 [30] was > 100 µM (inactive). The GI50 [31] was 51.8 µM (inactive), the GI50 [32] was 18.8 µM (inactive) and the GI50 [33] was 27.2 µM (inactive). For the same compound, the GI50 [34] was 36 µM (inactive), the GI50 [35] was 39.1 µM (inactive) and the GI50 [36] was 30.6 µM (inactive). For the same compound, the GI50 [37] was 45.6 µM (inactive), the GI50 [38] was > 100 µM (inactive) and the GI50 [39] was > 100 µM (inactive). For the same compound, the GI50 [40] was 17.4 µM (inactive), the GI50 [41] was 91.8 µM (inactive) and the GI50 [42] was 8.99 µM (inactive). For the same compound, the GI50 [43] was 43.2 µM (inactive), the GI50 [44] was 38.2 µM (inactive) and the GI50 [45] was > 100 µM (inactive). For the same compound, the GI50 [46] was 17.3 µM, the GI50 [47] was 31.6 µM (inactive) and the GI50 [48] was 41.8 µM (inactive). The GI50 [49] was 11.1 µM (inactive), the GI50 [50] was 58.1 µM (inactive) and the GI50 [51] was 16.9 µM (inactive). The GI50 [52] was 19.4 µM (inactive), the GI50 [53] was > 100 µM (inactive) and the GI50 [54] was 70.8 µM (inactive).

With Nc1nc(N)c2ncn(Cc3ccccc3CCl)c2n1 the GI50 [1] was > 100 µM (inactive), the GI50 [2] was > 100 µM (inactive) and the GI50 [55] was > 100 µM (inactive). For the same compound, the GI50 [3] was > 100 µM (inactive), the GI50 [4] was > 100 µM (inactive) and the GI50 [56] was > 100 µM (inactive). The GI50 [5] was > 100 µM (inactive), the GI50 [6] was > 100 µM (inactive) and the GI50 [7] was > 100 µM (inactive). The GI50 [8] was > 100 µM (inactive), the GI50 [9] was > 100 µM (inactive) and the GI50 [10] was > 100 µM (inactive). For the same compound, the GI50 [11] was 50.4 µM (inactive), the GI50 [12] was > 100 µM (inactive) and the GI50 [13] was > 100 µM (inactive). For the same compound, the GI50 [14] was > 100 µM (inactive), the GI50 [15] was 0.115 µM (active) and the GI50 [16] was > 100 µM (inactive). The GI50 [17] was > 100 µM (inactive), the GI50 [18] was > 100 µM (inactive) and the GI50 [19] was > 100 µM (inactive). For the same compound, the GI50 [20] was > 100 µM (inactive), the GI50 [21] was > 100 µM (inactive) and the GI50 [57] was > 100 µM (inactive). The GI50 [23] was > 100 µM (inactive), the GI50 [24] was > 100 µM (inactive) and the GI50 [26] was > 100 µM (inactive). The GI50 [27] was > 100 µM (inactive), the GI50 [28] was > 100 µM (inactive) and the GI50 [29] was > 100 µM (inactive). The GI50 [30] was > 100 µM (inactive), the GI50 [31] was > 100 µM (inactive) and the GI50 [33] was 80.5 µM (inactive). For the same compound, the GI50 [34] was > 100 µM (inactive), the GI50 [35] was > 100 µM (inactive) and the GI50 [36] was > 100 µM (inactive). The GI50 [37] was > 100 µM (inactive), the GI50 [38] was > 100 µM (inactive) and the GI50 [58] was > 100 µM (inactive). For the same compound, the GI50 [39] was 51.1 µM (inactive), the GI50 [40] was > 100 µM (inactive) and the GI50 [41] was > 100 µM (inactive). For the same compound, the GI50 [42] was 8.51 µM (inactive), the GI50 [43] was > 100 µM (inactive) and the GI50 [44] was > 100 µM (inactive). The GI50 [45] was > 100 µM (inactive), the GI50 [46] was > 100 µM and the GI50 [47] was > 100 µM (inactive). For the same compound, the GI50 [48] was > 100 µM (inactive), the GI50 [49] was 88.1 µM (inactive) and the GI50 [50] was > 100 µM (inactive). The GI50 [51] was > 100 µM (inactive), the GI50 [52] was > 100 µM (inactive) and the GI50 [53] was > 100 µM (inactive). For the same compound, the GI50 [54] was > 100 µM (inactive).

With Cc1cc2nc3n(c2cc1C)C(c1c(F)cccc1F)SC3 (stereo not drawn) the GI50 [1] was > 10 µM (inactive), the GI50 [2] was 17.5 µM (inactive) and the GI50 [55] was 25.4 µM (inactive). For the same compound, the GI50 [3] was 15.4 µM (inactive), the GI50 [4] was 19.5 µM (inactive) and the GI50 [56] was 19.2 µM (inactive). The GI50 [5] was 16.5 µM (inactive), the GI50 [6] was 46.8 µM (inactive) and the GI50 [7] was 13.7 µM (inactive). The GI50 [8] was 19.1 µM (inactive), the GI50 [9] was 11.6 µM (inactive) and the GI50 [10] was 14.1 µM (inactive). For the same compound, the GI50 [11] was 17.6 µM (inactive), the GI50 [13] was 17.9 µM (inactive) and the GI50 [14] was 18.5 µM (inactive). The GI50 [16] was 33.3 µM (inactive), the GI50 [17] was 16.8 µM (inactive) and the GI50 [18] was > 10 µM (inactive). The GI50 [19] was 23.9 µM (inactive), the GI50 [20] was 21.3 µM (inactive) and the GI50 [21] was 57.8 µM (inactive). The GI50 [22] was 21.2 µM (inactive), the GI50 [57] was 18.3 µM (inactive) and the GI50 [23] was > 10 µM (inactive). For the same compound, the GI50 [24] was 20.8 µM (inactive), the GI50 [26] was 23.7 µM (inactive) and the GI50 [27] was > 10 µM (inactive). The GI50 [28] was 21.3 µM (inactive), the GI50 [29] was 18.1 µM (inactive) and the GI50 [30] was 17.4 µM (inactive). For the same compound, the GI50 [31] was 10.5 µM (inactive), the GI50 [32] was 15.7 µM (inactive) and the GI50 [33] was 22.9 µM (inactive). For the same compound, the GI50 [34] was 19.3 µM (inactive), the GI50 [36] was 35.3 µM (inactive) and the GI50 [37] was 19.8 µM (inactive). The GI50 [38] was 22.3 µM (inactive), the GI50 [58] was 17.7 µM (inactive) and the GI50 [39] was 11 µM (inactive). The GI50 [40] was 27.6 µM (inactive), the GI50 [59] was 20.8 µM (inactive) and the GI50 [41] was 62.7 µM (inactive). The GI50 [42] was 12.7 µM (inactive), the GI50 [43] was 16.1 µM (inactive) and the GI50 [44] was 19.9 µM (inactive). The GI50 [45] was 30.7 µM (inactive), the GI50 [46] was > 10 µM and the GI50 [47] was 28.1 µM (inactive). The GI50 [48] was 14.2 µM (inactive), the GI50 [49] was 19.4 µM (inactive) and the GI50 [51] was 34.8 µM (inactive). The GI50 [52] was 17.3 µM (inactive), the GI50 [53] was 18.5 µM (inactive) and the GI50 [54] was 20.7 µM (inactive).

Reference: ChEMBL document CHEMBL1201862, “PubChem BioAssay data set” (2004)
